Results taken from publication PMC5310970 (Journal of photochemistry and photobiology. B, Biology, 2016).

Molecular target: Prostate-specific membrane antigen (PSMA) (Homo sapiens, UniProt Q04609)
Assay: fluorescence-based NAALADase inhibition assay
Format: biochemical

Prostate-specific membrane antigen (PSMA), sequence (Q04609 whole entry): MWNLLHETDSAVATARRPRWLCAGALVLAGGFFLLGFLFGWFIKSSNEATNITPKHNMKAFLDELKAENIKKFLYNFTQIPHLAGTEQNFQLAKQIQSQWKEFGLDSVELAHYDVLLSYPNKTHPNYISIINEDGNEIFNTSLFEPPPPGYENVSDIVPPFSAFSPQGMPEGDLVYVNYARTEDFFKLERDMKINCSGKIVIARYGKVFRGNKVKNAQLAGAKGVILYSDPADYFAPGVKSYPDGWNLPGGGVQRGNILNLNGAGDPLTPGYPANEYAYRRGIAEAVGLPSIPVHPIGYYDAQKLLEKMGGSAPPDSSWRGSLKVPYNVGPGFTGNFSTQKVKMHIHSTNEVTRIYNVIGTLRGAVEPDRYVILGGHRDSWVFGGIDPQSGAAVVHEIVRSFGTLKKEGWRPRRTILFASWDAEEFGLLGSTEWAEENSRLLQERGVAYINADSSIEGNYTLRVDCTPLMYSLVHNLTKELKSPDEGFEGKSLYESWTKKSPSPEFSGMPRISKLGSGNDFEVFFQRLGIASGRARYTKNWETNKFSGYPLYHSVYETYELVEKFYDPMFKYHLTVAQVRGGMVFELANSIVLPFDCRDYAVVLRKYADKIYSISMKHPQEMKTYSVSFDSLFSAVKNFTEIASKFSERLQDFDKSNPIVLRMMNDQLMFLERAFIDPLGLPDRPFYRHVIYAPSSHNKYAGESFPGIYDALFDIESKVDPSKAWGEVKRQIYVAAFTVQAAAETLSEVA

## YC-9
  Ki: 0.2 nM
